What was measured:
DU145 prostate carcinoma = test: In vitro antiproliferative activity (Microculture Tetrazolium Assay) on DU145; type: cell-based; settings: DU 145 cells; read-out: IC50, the concentration of cytotoxic agent that inhibits the proliferation of the treated cells by 50%
Procedure: (§1) Three cell lines were used: • L1210 murine leukaemia • A549 non-small-cell human lung carcinoma • DU145 prostate carcinoma
(§2) L1210 murine leukaemia was used in vitro. The cells are cultured in RPMI 1640 complete culture medium containing 10% foetal calf serum, 2 mM glutamine, 50 units/ml of penicillin, 50 μg/ml of streptomycin and 10 mM Hepes, pH: 7.4. The cells are distributed on microplates and are exposed to the cytotoxic compounds for 4 doubling periods, or 48 hours. The number of viable cells is then quantified by a colorimetric assay, the Microculture Tetrazolium Assay (J. Carmichael et al., Cancer Res.; 47, 936–942 (1987)). The results are expressed as the IC50, the concentration of cytotoxic agent that inhibits the proliferation of the treated cells by 50%.

L1210 murine leukaemia = test: In vitro antiproliferative activity (Microculture Tetrazolium Assay) on L1210; type: cell-based; settings: L1210 cells, exposure 4 doubling periods or 48 hours; read-out: IC50, the concentration of cytotoxic agent that inhibits the proliferation of the treated cells by 50%
Procedure: as §1, §2

[1] = system: A549 non-small-cell human lung carcinoma; test: In vitro antiproliferative activity (Microculture Tetrazolium Assay) on A549; type: cell-based; settings: A549 cells; read-out: IC50, the concentration of cytotoxic agent that inhibits the proliferation of the treated cells by 50%
Procedure: as §1, §2

| melting point | SMILES | IC50 (DU145 prostate carcinoma) [µM] | IC50 (L1210 murine leukaemia) [µM] | IC50 [1] [µM] |
| --- | --- | --- | --- | --- |
| 294 °C (dec.) | Cn1c(=O)c2c3[nH]c4ccccc4c3c3c(=O)oc(=O)c3c2c1=O | – | – | – |
| – | Cn1c(=O)c2c3[nH]c4ccccc4c3c3c(=O)n(C)c(=O)c3c2c1=O [Example 2, 2,5-dimethyl-1H-dipyrrolo[3,4-a:3,4-c]carbazole-1,3,4,6(2H,5H,7H)-tetrone] | 5.4 | 6.8 | 4.7 |

Source: patent publication US7151108B2, “[3,4-a:3,4-c]carbazole compounds” (Les Laboratories Servier, priority 2002, dated 2006)
